According to ChEMBL document CHEMBL4270624, “Synthesis and antibacterial evaluation of 13-substituted cycloberberine derivatives as a novel class of anti-MRSA agents” (Eur J Med Chem, 2018):

Experiments:
[1] = Stability of the compound in Sprague-Dawley rat whole blood assessed as parent compound remaining after 0.5 hrs by LC-MS/MS analysis; type: ADME, tissue-based; conditions: read-out: Stability
[2] = Stability of the compound in Sprague-Dawley rat whole blood assessed as parent compound remaining after 1 hr by LC-MS/MS analysis; type: ADME, tissue-based; conditions: read-out: Stability
Staphylococcus aureus [3] = test: Antibacterial activity against methicillin-sensitive Staphylococcus aureus ATCC 29213 after 18 hrs by agar dilution method; type: functional; conditions: ATCC 29213, 18 h
Staphylococcus aureus [4] = test: Antibacterial activity against methicillin-sensitive Staphylococcus aureus 16-1 clinical isolate after 18 hrs by agar dilution method; type: functional; conditions: 16-1, 18 h
Staphylococcus aureus [5] = test: Antibacterial activity against methicillin-resistant Staphylococcus aureus ATCC 33591 after 18 hrs by agar dilution method; type: functional; conditions: ATCC 33591, 18 h
Staphylococcus aureus [6] = test: Antibacterial activity against methicillin-resistant Staphylococcus aureus ATCC 43300 after 18 hrs by agar dilution method; type: functional; conditions: ATCC 43300, 18 h
Staphylococcus aureus [7] = test: Antibacterial activity against methicillin-resistant Staphylococcus aureus ATCC BAA-976 after 18 hrs by agar dilution method; type: functional; conditions: ATCC BAA-976, 18 h
Staphylococcus aureus [8] = test: Antibacterial activity against methicillin-resistant Staphylococcus aureus ATCC BAA-1708 after 18 hrs by agar dilution method; type: functional; conditions: ATCC BAA-1708, 18 h
Staphylococcus aureus [9] = test: Antibacterial activity against methicillin-resistant Staphylococcus aureus 13-18 clinical isolate after 18 hrs by agar dilution method; type: functional; conditions: 13-18, 18 h
Staphylococcus aureus [10] = test: Antibacterial activity against methicillin-resistant Staphylococcus aureus 13-23 clinical isolate after 18 hrs by agar dilution method; type: functional; conditions: 13-23, 18 h
Staphylococcus aureus [11] = test: Antibacterial activity against methicillin-resistant Staphylococcus aureus 16-30 clinical isolate after 18 hrs by agar dilution method; type: functional; conditions: 16-30, 18 h
Staphylococcus aureus [12] = test: Antibacterial activity against methicillin-resistant Staphylococcus aureus 16-34 clinical isolate after 18 hrs by agar dilution method; type: functional; conditions: 16-34, 18 h
[13] = Stability of the compound in Sprague-Dawley rat whole blood assessed as parent compound remaining after 24 hrs by LC-MS/MS analysis; type: ADME, tissue-based; conditions: read-out: Stability
[14] = AUC (0 to t) in Sprague-Dawley rat at 1 mg/kg, iv administered as single dose; type: ADME, organism-based; conditions: in vivo
[15] = Mean residence time (0 to t) in Sprague-Dawley rat at 1 mg/kg, iv administered as single dose; type: ADME, organism-based; conditions: in vivo
[16] = Half life in Sprague-Dawley rat at 1 mg/kg, iv administered as single dose; type: ADME, organism-based; conditions: in vivo
[17] = Cmax in Sprague-Dawley rat at 5 mg/kg, po administered as single dose; type: ADME, organism-based; parameters: dose 5 mg/kg, route oral; conditions: in vivo
[18] = Tmax in Sprague-Dawley rat at 5 mg/kg, po administered as single dose; type: ADME, organism-based; conditions: in vivo
[19] = AUC (0 to t) in Sprague-Dawley rat at 5 mg/kg, po administered as single dose; type: ADME, organism-based; conditions: in vivo
[20] = Mean residence time (0 to t) in Sprague-Dawley rat at 5 mg/kg, po administered as single dose; type: ADME, organism-based; conditions: in vivo
[21] = Half life in Sprague-Dawley rat at 5 mg/kg, po administered as single dose; type: ADME, organism-based; conditions: in vivo
[22] = Oral bioavailability in Sprague-Dawley rat at 5 mg/kg administered as single dose; type: ADME, organism-based; conditions: in vivo
[23] = Toxicity in iv dosed Kunming mouse administered as single dose measured for 7 days; type: organism-based; conditions: in vivo

Row | Structure (SMILES) | MIC (Staphylococcus aureus [3]) [µg/mL] | MIC (Staphylococcus aureus [4]) [µg/mL] | MIC (Staphylococcus aureus [5]) [µg/mL] | MIC (Staphylococcus aureus [6]) [µg/mL] | MIC (Staphylococcus aureus [7]) [µg/mL] | MIC (Staphylococcus aureus [8]) [µg/mL] | MIC (Staphylococcus aureus [9]) [µg/mL] | MIC (Staphylococcus aureus [10]) [µg/mL] | MIC (Staphylococcus aureus [11]) [µg/mL] | MIC (Staphylococcus aureus [12]) [µg/mL] | other results
1 | CCOC(=O)[C@H](CCc1ccccc1)N[C@@H](C)C(=O)N1CCC[C@H]1C(=O)O [ENALAPRIL] |  |  |  |  |  |  |  |  |  |  | remaining at 0.5 h [1]: 42.9%; remaining at 1 h [2]: 10.9%
2 | COc1ccc2c(c[n+]3c4c2cc(Cc2ccccc2C)c2c5c(cc(c24)CC3)OCO5)c1OC.[Br-] | 4 | 2 | 2 | 2 | 1 | 2 | 2 | 2 | 4 | 2 | remaining at 1 h [2]: 94.2%; remaining at 24 h [13]: 80.9%; AUC(0-t) [14]: 724 ng·h/mL; MRT last [15]: 4.3 h; half-life [16]: 7.2 h; Cmax [17]: 11.7 ng/mL; Tmax [18]: 1 h; AUC(0-t) [19]: 28.3 ng·h/mL; MRT last [20]: 2.1 h; half-life [21]: 1.5 h; bioavailability [22]: 0.8%; LD50 at 168 h [23]: 65.6 mg/kg
3 | COc1ccc2c(c[n+]3c4c2cc(Cc2ccc(C(C)(C)C)cc2)c2c5c(cc(c24)CC3)OCO5)c1OC.[Br-] | 32 | 32 | 64 | 64 | 64 | 64 | 64 | 64 | 64 | 64 | 
4 | COc1ccc2c(c[n+]3c4c2cc(Cc2ccccc2)c2c5c(cc(c24)CC3)OCO5)c1OC.[Br-] | 4 | 4 | 4 | 4 | 4 | 8 | 8 | 4 | 4 | 4 | 
5 | COc1ccc2c(c[n+]3c4c2cc(Cc2ccc(OC(F)(F)F)cc2)c2c5c(cc(c24)CC3)OCO5)c1OC.[Br-] | 32 | 64 | 32 | 64 | 64 | 64 | 32 | 32 | 64 | 64 | 
6 | COC(=O)C(c1ccccc1)c1cc2c3ccc(OC)c(OC)c3c[n+]3c2c2c(cc4c(c12)OCO4)CC3.[Br-] (configuration not stated) | > 64 | > 64 | > 64 | > 64 | > 64 | > 64 | > 64 | > 64 | > 64 | > 64 | 
7 | COc1ccc2c(c[n+]3c4c2cc(Cc2ccc(F)cc2)c2c5c(cc(c24)CC3)OCO5)c1OC.[Br-] | 4 | 4 | 4 | 4 | 4 | 8 | 4 | 2 | 4 | 4 | 
8 | COc1ccc2c(c[n+]3c4c2cc(C(C)c2ccccc2)c2c5c(cc(c24)CC3)OCO5)c1OC.[Br-] (configuration not stated) | 2 | 2 | 2 | 4 | 1 | 4 | 2 | 2 | 2 | 2 | remaining at 1 h [2]: 91.2%; remaining at 24 h [13]: 77.3%; LD50 at 168 h [23]: 41.2 mg/kg
9 | C[C@H]1COc2c(N3CCN(C)CC3)c(F)cc3c(=O)c(C(=O)O)cn1c23.C[C@H]1COc2c(N3CCN(C)CC3)c(F)cc3c(=O)c(C(=O)O)cn1c23.O [LEVOFLOXACIN] | 0.125 | 0.125 | 0.125 | 0.125 | 0.125 | 8 | 32 | 32 | 32 | 32 | 
10 | COc1ccc2c(c[n+]3c4c2cc(Cc2c(F)cccc2F)c2c5c(cc(c24)CC3)OCO5)c1OC.[Br-] | 4 | 4 | 8 | 8 | 2 | 8 | 4 | 4 | 4 | 2 | 
11 | COc1ccc2c(c[n+]3c4c2cc(Cc2ccc(SC(F)(F)F)cc2)c2c5c(cc(c24)CC3)OCO5)c1OC.[Br-] | > 64 | > 64 | > 64 | > 64 | > 64 | > 64 | > 64 | > 64 | > 64 | > 64 | 
12 | COc1ccc2c(c[n+]3c4c2cc(Cc2cc(C)cc(C)c2)c2c5c(cc(c24)CC3)OCO5)c1OC.[Br-] | 4 | 4 | 4 | 8 | 2 | 8 | 4 | 4 | 4 | 4 | 
13 | COc1ccc2c(c[n+]3c4c2cc(Cc2ccncc2)c2c5c(cc(c24)CC3)OCO5)c1OC.[Br-] | 64 | 64 | 64 | 64 | 64 | 64 | 64 | 32 | 64 | 64 | 
